Patent US8076112B2, “Fermentation processes” (priority 2006, dated 2011)

Test system: Lactobacillus paracasei
Experiment: Effect of Lysozyme on Lactobacillus in fermentation medium (liquefied corn mash), bacterial plating and counting
Type: cell-based
Conditions: 0-100-300-1000 mg/L Lysozyme in corn mash pH 5.05, 32° C., 0, 24 and 48 hours (FIG. 4)
Procedure: Milled corn was liquefied in an aqueous slurry (pH 5.6) using 50 NU/g DS Bacterial Alpha-Amylase A by heating until a temperature of 85° C. (approx 20 minutes) was reached. Thereafter the slurry is cooked for another 60 minutes. A sample of the liquefied corn mash (CM) was pH-adjusted to 5.05 with H2SO4. After pH adjustment, the mash was split up into approximately 59 of CM and added to 36 15 mL plastic centrifuge tubes. Various amounts of L. paracasei were then added to give an initial cell count of about 1-3×10^6/mL. Different dosages (0-100-300-1000 mg/L) of Lysozyme (Sigma) were also added to each tube. The tubes were then thoroughly vortexed and placed in a rack in 32° C. water bath. Tubes were pulled after 0, 24, and 48 hours for bacterial plating and counting. No additional Lysozyme was added to any of the tubes after time zero.

In the case of “Lysozyme: Lysozyme from hen egg white, cat # L-7651, purchased from Sigma”, the “Antibacterial effect on Lactobacillus (growth inhibition)” value was “effective inhibiting growth of Lactobacillus paracasei”.
